Data reported in US20040266623A1, “SYNERGISTIC QUINCLORAC HERBICIDAL COMPOSITIONS” (priority 2003, published 2004).

What was measured:
Test in all cases: Greenhouse pot test, postemergent spray, visual control rating converted to percent control
Format in all cases: in vivo
dandelion = settings: for Control (1-9) Dandelion: scale 1=no control, 9=death of plant
Method in brief: (§1)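 Percent control derives from a visual 1–9 scale where 1 means no control and 9 plant death, scored from 24 hours through 21 days after treatment. Sprays were applied at 43.46 gallons of solution/acre to greenhouse-grown pots.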

plantain = settings: for Control (1-9) Plantain: scale 1=no control, 9=death of plant
Method in brief: as §1

white clover = settings: for Control (1-9) Clover: scale 1=no control, 9=death of plant
Method in brief: as §1

crabgrass = settings: for Control (1-9) Crabgrass: scale 1=no control, 9=death of plant
Method in brief: as §1

Cc1cc(Cl)ccc1OCC(=O)OCCCCCC(C)C [MCPA IOE @ 1.10 lbs/A]
% Control Dandelion (dandelion; Test 3, 7 DAT): 66.7%
Control (1-9) Dandelion (dandelion; Test 3, 7 DAT): 6
% Control Dandelion (dandelion; Test 3, 14 DAT): 77.8%
Control (1-9) Dandelion (dandelion; Test 3, 14 DAT): 7
% Control Dandelion (dandelion; Test 3, 21 DAT): 88.9%
Control (1-9) Dandelion (dandelion; Test 3, 21 DAT): 8
% Control Dandelion (dandelion; Test 3, 24 HAT): 33.3%
Control (1-9) Dandelion (dandelion; Test 3, 24 HAT): 3
% Control Dandelion (dandelion; Test 3, 72 HAT): 55.6%
Control (1-9) Dandelion (dandelion; Test 3, 72 HAT): 5
% Control Dandelion (dandelion; Test 4, 24 HAT): 33.3%
Control (1-9) Dandelion (dandelion; Test 4, 24 HAT): 3
% Control Dandelion (dandelion; Test 4, 72 HAT): 55.6%
Control (1-9) Dandelion (dandelion; Test 4, 72 HAT): 5
% Control Plantain (plantain; Test 3, 7 DAT): 66.7%
Control (1-9) Plantain (plantain; Test 3, 7 DAT): 6
% Control Plantain (plantain; Test 3, 14 DAT): 77.8%
Control (1-9) Plantain (plantain; Test 3, 14 DAT): 7
% Control Plantain (plantain; Test 3, 21 DAT): 77.8%
Control (1-9) Plantain (plantain; Test 3, 21 DAT): 7
% Control Plantain (plantain; Test 3, 24 HAT): 44.4%
Control (1-9) Plantain (plantain; Test 3, 24 HAT): 4
% Control Plantain (plantain; Test 3, 72 HAT): 44.4%
Control (1-9) Plantain (plantain; Test 3, 72 HAT): 4
% Control Plantain (plantain; Test 4, 24 HAT): 22.2%
Control (1-9) Plantain (plantain; Test 4, 24 HAT): 2
% Control Plantain (plantain; Test 4, 72 HAT): 44.4%
Control (1-9) Plantain (plantain; Test 4, 72 HAT): 4
% Control Clover (white clover; Test 3, 7 DAT): 66.7%
Control (1-9) Clover (white clover; Test 3, 7 DAT): 6
% Control Clover (white clover; Test 3, 14 DAT): 88.9%
Control (1-9) Clover (white clover; Test 3, 14 DAT): 8
% Control Clover (white clover; Test 3, 21 DAT): 100.0%
Control (1-9) Clover (white clover; Test 3, 21 DAT): 9
% Control Clover (white clover; Test 3, 24 HAT): 44.4%
Control (1-9) Clover (white clover; Test 3, 24 HAT): 4
% Control Clover (white clover; Test 3, 72 HAT): 44.4%
Control (1-9) Clover (white clover; Test 3, 72 HAT): 4
% Control Clover (white clover; Test 4, 24 HAT): 44.4%
Control (1-9) Clover (white clover; Test 4, 24 HAT): 4
% Control Clover (white clover; Test 4, 72 HAT): 55.6%
Control (1-9) Clover (white clover; Test 4, 72 HAT): 5
% Control Crabgrass (crabgrass; Test 3, 7 DAT): 11.1%
Control (1-9) Crabgrass (crabgrass; Test 3, 7 DAT): 1
% Control Crabgrass (crabgrass; Test 3, 14 DAT): 22.2%
Control (1-9) Crabgrass (crabgrass; Test 3, 14 DAT): 2
% Control Crabgrass (crabgrass; Test 3, 21 DAT): 44.4%
Control (1-9) Crabgrass (crabgrass; Test 3, 21 DAT): 4
% Control Crabgrass (crabgrass; Test 3, 24 HAT): 11.1%
Control (1-9) Crabgrass (crabgrass; Test 3, 24 HAT): 1
% Control Crabgrass (crabgrass; Test 3, 72 HAT): 11.1%
Control (1-9) Crabgrass (crabgrass; Test 3, 72 HAT): 1
% Control Crabgrass (crabgrass; Test 4, 24 HAT): 11.1%
Control (1-9) Crabgrass (crabgrass; Test 4, 24 HAT): 1
% Control Crabgrass (crabgrass; Test 4, 72 HAT): 11.1%
Control (1-9) Crabgrass (crabgrass; Test 4, 72 HAT): 1
